Measurements taken from ChEMBL document CHEMBL5126573, “Scaffold modifications to the 4-(4,4-dimethylpiperidinyl) 2,6-dimethylpyridinyl class of HIV-1 allosteric integrase inhibitors” (Bioorg Med Chem, 2022).

Tests used:
[1] = Metabolic stability in rat liver microsomes assessed as half life; format: ADME, Microsome
[2] = Metabolic stability in human liver microsomes assessed as half life; format: ADME, Microsome
[3] = Toxicity in human Huh-7 cells assessed as fold change in lipid droplet formation at 10 uM incubated for 72 hrs boron-dipyrromethene staining based by high content screening (HCS) fluorescence analysis relative to control; format: cell-based; conditions: huh-7, 72 h
[4] = Cytotoxicity against human MT2 cells infected with HIV1 NLRep-Rluc harbouring polymorphic 124T/125T integrase; format: toxicity, cell-based; conditions: MT2 cells infected with HIV-1 NLRep-Rluc
[5] = AUC (0 to infinity) in Sprague-Dawley rat at 5 mg/kg, po; format: ADME, organism-based; design: time infinity, dose 5 mg/kg, route po; conditions: in vivo
[6] = Toxicity in rat H4-II-E cells assessed as fold change in lipid droplet formation at 10 uM incubated for 72 hrs boron-dipyrromethene staining based by high content screening (HCS) fluorescence analysis relative to control; format: cell-based
[7] = Permeability of the compound at pH 5.5 by PAMPA assay; format: ADME; conditions: read-out: permeability
[8] = system: Human immunodeficiency virus 1; assay: Antiviral activity against recombinant HIV1 NLRep-Rluc harbouring polymorphic 124T/125T integrase infected in human MT2 cells assessed as inhibition of virus growth in presence of fetal bovine serum by measuring luciferase activity after 5 days by Luciferase Assay; format: functional, organism-based; conditions: Human immunodeficiency virus 1, NLRep-Rluc, MT2, 120 h
[9] = Metabolic stability in Sprague-Dawley rat assessed as clearance at 1 mg/kg, iv; format: ADME, organism-based; conditions: in vivo
[10] = Permeability of the compound at pH 7.4 by PAMPA assay; format: ADME; conditions: read-out: permeability
[11] = system: Human immunodeficiency virus 1; assay: Antiviral activity against recombinant HIV1 NLRep-Rluc harbouring polymorphic 124A/125A integrase infected in human MT2 cells assessed as inhibition of virus growth in presence of fetal bovine serum by measuring luciferase activity after 5 days by Luciferase Assay; format: functional, organism-based; conditions: Human immunodeficiency virus 1, NLRep-Rluc, MT2, 120 h
[12] = system: Human immunodeficiency virus 1; assay: Antiviral activity against recombinant HIV1 NLRep-Rluc harbouring polymorphic 124N/125A integrase infected in human MT2 cells assessed as inhibition of virus growth in presence of fetal bovine serum by measuring luciferase activity after 5 days by Luciferase Assay; format: functional, organism-based; conditions: Human immunodeficiency virus 1, NLRep-Rluc, MT2, 120 h
[13] = Oral bioavailability in Sprague-Dawley rat at 5 mg/kg; format: ADME, organism-based; conditions: in vivo

| Compound | half-life [1] [h] | half-life [2] [h] | fold change (FC) [3] | CC50 [4] [nM] | AUC(0-inf) [5] [µM·h] | fold change (FC) [6] | Papp [7] [×10⁻⁶ cm/s] | EC50 [8] [nM] | clearance [9] [mL/min/kg] | Papp [10] [×10⁻⁶ cm/s] | EC50 [11] [nM] | EC50 [12] [nM] | bioavailability [13] [%] |
| --- | --- | --- | --- | --- | --- | --- | --- | --- | --- | --- | --- | --- | --- |
| Cc1nc(C)c([C@H](OC(C)(C)C)C(=O)O)c(N2CCC(C)(C)CC2)c1-c1ccc(OCCc2ccc(F)cc2)cc1 | > 2 | > 2 | 3.7 | ≥ 18200 | 14 | 4 |  |  |  |  |  |  |  |
| Cc1nc2c(-c3ccc4c(c3)CCN(Cc3c(C)cccc3Cl)C4)c(N3CCC(C)(C)CC3)c([C@H](OC(C)(C)C)C(=O)O)c(C)n2n1 |  |  |  | ≥ 3000 | 3.21 |  | 35.2 | 6 | 13 | 48.3 | 10.1 | 9 | 34 |
| Cc1cn2c(C)c([C@H](OC(C)(C)C)C(=O)O)c(N3CCC(C)(C)CC3)c(-c3ccc(OCCc4ccc(F)cc4)cc3)c2n1 |  | > 2 |  | ≥ 10300 | 0.269 |  | 38.7 | 0.8 | 40.7 | 43.8 | 1.6 | 1.8 | 8 |
| Cc1nc2c(-c3ccc4c(c3)CCN(c3ncnc5c3oc3ccccc35)C4)c(N3CCC(C)(C)CC3)c([C@H](OC(C)(C)C)C(=O)O)c(C)n2n1 |  |  | 3.9 | ≥ 3000 | 36.3 | 3.6 | 101 | 3.9 | 2.8 | 75.2 | 5.2 | 4.5 | 83 |
| Cc1c([C@H](OC(C)(C)C)C(=O)O)c(N2CCC(C)(C)CC2)c(-c2ccc3c(c2)CCN(c2ncnc4c2oc2ccccc24)C3)c2nccn12 |  |  |  | ≥ 3000 | 12.1 |  |  | 2.9 | 1 | 66.3 | 4.5 | 4.6 | 9 |
| Cc1c([C@H](OC(C)(C)C)C(=O)O)c(N2CCC(C)(C)CC2)c(-c2ccc(OCCc3ccc(F)cc3)cc2)c2cncn12 |  |  |  | ≥ 18200 |  |  |  | 14.6 |  |  | 34.1 | 41 |  |
| Cc1c([C@H](OC(C)(C)C)C(=O)O)c(N2CCC(C)(C)CC2)c(-c2ccc(OCCc3ccc(F)cc3)cc2)c2cccn12 |  |  |  | ≥ 18200 |  |  |  | 27.7 |  |  | 38.2 | 32.6 |  |
| Cc1c([C@H](OC(C)(C)C)C(=O)O)c(N2CCC(C)(C)CC2)c(-c2ccc(OCCc3ccc(F)cc3)cc2)c2nc(C(C)C)cn12 |  |  |  | ≥ 10300 |  |  |  | 1.2 |  |  | 2.9 | 3.1 |  |
| Cc1c([C@H](OC(C)(C)C)C(=O)O)c(N2CCC(C)(C)CC2)c(-c2ccc(OCCc3ccc(F)cc3)cc2)c2nc(C3CC3)cn12 |  |  |  | ≥ 10300 |  |  |  | 4.2 |  |  | 10.7 | 11.1 |  |
| Cc1c([C@H](OC(C)(C)C)C(=O)O)c(N2CCC(C)(C)CC2)c(-c2ccc3c(c2)CCN(c2ncnc4c2oc2ccccc24)C3)c2cnnn12 |  |  | 2.7 | ≥ 3000 | 21.7 | 1.3 |  | 3.8 | 1.9 | 79 | 4 | 6.4 | 33 |
| Cc1c([C@H](OC(C)(C)C)C(=O)O)c(N2CCC(C)(C)CC2)c(-c2ccc(OCCc3ccc(F)cc3)cc2)c2nc(CC(C)C)cn12 | > 2 | > 2 |  | ≥ 10300 |  |  |  | 1.2 | 44.6 |  | 3.5 | 2.6 |  |
| Cc1c([C@H](OC(C)(C)C)C(=O)O)c(N2CCC(C)(C)CC2)c(-c2ccc3c(c2)CCN(c2ncnc4c2oc2ccccc24)C3)c2ncnn12 |  |  |  | ≥ 3000 | 30.7 |  |  | 2.9 | 1.5 | 47.4 | 5 | 5.1 | 37 |
| Cc1c([C@H](OC(C)(C)C)C(=O)O)c(N2CCC(C)(C)CC2)c(-c2ccc(OCCc3ccc(F)cc3)cc2)c2ncnn12 | > 2 | > 2 | 2.7 | ≥ 18200 | 3.59 | 1.6 | 160 | 2.4 | 11.9 | 65.4 | 4.6 | 4 | 28 |
| Cc1c([C@H](OC(C)(C)C)C(=O)O)c(N2CCC(C)(C)CC2)c(-c2ccc(OCCc3ccc(F)cc3)cc2)c2cnnn12 |  |  |  | ≥ 18200 |  |  |  | 5.8 |  |  | 11.5 | 14.8 |  |
| Cc1c([C@H](OC(C)(C)C)C(=O)O)c(N2CCC(C)(C)CC2)c(-c2ccc(OCCc3ccc(F)cc3)cc2)c2nc(C(F)(F)F)cn12 |  |  |  | ≥ 10300 |  |  |  | 5.2 |  |  | 10.4 | 12.4 |  |
| Cc1c([C@H](OC(C)(C)C)C(=O)O)c(N2CCC(C)(C)CC2)c(-c2ccc(OCCc3ccc(F)cc3)cc2)c2nccn12 | > 2 | > 2 | 3.3 | ≥ 10300 | 1.48 | 1.9 | 49.8 | 1.1 | 12.5 | 41 | 1.7 | 1.9 | 13 |
| Cc1nc2c(-c3ccc(OCCc4ccc(F)cc4)cc3)c(N3CCC(C)(C)CC3)c([C@H](OC(C)(C)C)C(=O)O)c(C)n2n1 | > 2 | > 2 |  | ≥ 40000 | 2.71 |  |  | 1.3 | 20.1 |  | 2.2 | 2.7 | 39 |
| Cc1c([C@H](OC(C)(C)C)C(=O)O)c(N2CCC(C)(C)CC2)c(-c2ccc(OCCc3ccc(F)cc3)cc2)c2nncn12 |  |  |  | ≥ 18200 |  |  |  | 11.9 |  |  | 15.8 | 13.7 |  |
| Cc1nc2c(C)c(N3CCC(C)(C)CC3)c([C@H](OC(C)(C)C)C(=O)O)c(C)n2n1 |  |  |  | ≥ 3000 |  |  |  | 207 |  |  | 1210 | 540 |  |
| Cc1c([C@H](OC(C)(C)C)C(=O)O)c(N2CCC(C)(C)CC2)c(-c2ccc(OCCc3ccc(F)cc3)cc2)c2ccnn12 |  |  |  | ≥ 18200 |  |  |  | 12.9 |  |  | 35.3 | 26.3 |  |
| CCc1cn2c(C)c([C@H](OC(C)(C)C)C(=O)O)c(N3CCC(C)(C)CC3)c(-c3ccc(OCCc4ccc(F)cc4)cc3)c2n1 | > 2 | > 2 |  | ≥ 10300 |  |  |  | 1 | 57.3 | 34.3 | 1.8 | 2.4 |  |
